Measured values taken from patent US20200278355A1, “CONJUGATED PROTEINS AND USES THEREOF” (THE SCRIPPS RESEARCH INSTITUTE, priority 2017, published 2020).
One block for each compound: values may come before it.

What was measured:
[1] = test system: cysteine reactivity in H2122 and H1975 cells; experiment: isoTOP-ABPP of cysteine reactivity changes after staurosporine or AZD9291 treatment; assay type: cell-based, human; conditions: staurosporine 1 μM, 4 h (H2122, H1975); AZD9291 1 μM, 24 h (H1975)
Method: For analysis of cysteines that change following induction of apoptosis, H2122 and H1975 cells were treated with DMSO or staurosporine (1 μM, 4 h) in full RPMI. H1975 cells were treated with DMSO or AZD9291 (1 μM, 24 h) in full RPMI. Cells were lysed as described above. […] Samples were conjugated by copper-catalyzed azide-alkyne cycloaddition (CuAAC) to isotopically labeled, TEV-cleavable tags (TEV-tags). Heavy CuAAC reaction mixtures was added to the DMSO-treated or shGFP control samples and light CuAAC reaction mixture was added to compound-treated or shNRF2 samples. The CuAAC reaction mixture consisted of TEV tags (light or heavy, 10 μL of 5 mM stocks in DMSO, final concentration=100 μM), 1 mM tris(2-carboxyethyl)phosphine hydrochloride (TCEP; fresh 50× stock in water, final concentration=1 mM), ligand (17× stock in DMSO:t-butanol 1:4, final concentration=100 μM) and 1 mM CuSO4 (50× stock in water, final concentration=1 mM). The samples were allowed to react for 1 h at which point the samples were centrifuged (16,000×g, 5 min, 4° C.). The resulting pellets were sonicated in ice-cold methanol (500 μL) and the resuspended light- and heavy-labeled samples were then combined pairwise and centrifuged (16,000×g, 5 min, 4° C.). […] Samples were analyzed using an LTQVelos Orbitrap mass spectrometer (Thermo Scientific) coupled to an Agilent 1200-series quaternary pump. […]

KEAP1-mutant NSCLC cells = experiment: Colony formation in soft agar, KEAP1-mutant NSCLC cells; assay type: cell-based, human; conditions: 5 μM
Description: Based on its in situ activity (FIG. 6D and FIG. 12A, 12G) and selectivity (FIGS. 6A, 6B), BPK-29 was chosen for additional biological studies. […] Exogenous expression of […] the growth inhibition caused by BPK-29.

NR0B1 = target: T1, NR0B1 (Homo sapiens, UniProt P51843); experiment: isoTOP-ABPP of compound-treated H460 cells: NR0B1; assay type: cell-based; conditions: NSCLC cells, 40 μM, 3 h
T1 construct: H460 cells or H460 cells expressing luciferase in a 10 cm plate were incubated with indicated compounds; endogenous in cells; host or cells: H460 (NSCLC, KEAP1-mutant)
T1 sequence (P51843 1-470): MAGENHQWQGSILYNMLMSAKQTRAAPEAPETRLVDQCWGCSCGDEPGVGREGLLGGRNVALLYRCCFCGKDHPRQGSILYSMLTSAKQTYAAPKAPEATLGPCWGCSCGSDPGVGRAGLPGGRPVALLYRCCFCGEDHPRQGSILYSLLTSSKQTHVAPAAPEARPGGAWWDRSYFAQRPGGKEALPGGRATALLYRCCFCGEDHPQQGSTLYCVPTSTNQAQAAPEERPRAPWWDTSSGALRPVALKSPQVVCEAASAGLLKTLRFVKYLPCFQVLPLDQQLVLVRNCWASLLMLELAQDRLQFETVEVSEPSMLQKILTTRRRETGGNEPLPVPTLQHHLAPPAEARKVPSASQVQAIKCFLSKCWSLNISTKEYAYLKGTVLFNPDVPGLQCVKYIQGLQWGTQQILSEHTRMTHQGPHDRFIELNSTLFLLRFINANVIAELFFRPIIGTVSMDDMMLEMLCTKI
Method: For analysis of NR0B1 ligands or control compound reactivity, H460 cells or H460 cells expressing luciferase in a 10 cm plate were incubated with indicated compounds in serum/dye-free RPMI for 3 hours at 37° C. Cells were washed once ice-cold PBS and lysed in 1% Triton X-100 dissolved in PBS with protease inhibitors (Sigma) by sonication. Samples were clarified by centrifugation for 10 min at 16,000×g. Lysate was adjusted to 1.5 mg ml^−1 in 500 μL.
Samples were labeled for 1 h at ambient temperature with 100 μM iodoacetamide alkyne (1, IA-alkyne, 5 μL of 10 mM stock in DMSO). Samples were conjugated by copper-catalyzed azide-alkyne cycloaddition (CuAAC) to isotopically labeled, TEV-cleavable tags (TEV-tags). Heavy CuAAC reaction mixtures was added to the DMSO-treated or shGFP control samples and light CuAAC reaction mixture was added to compound-treated or shNRF2 samples. The CuAAC reaction mixture consisted of TEV tags (light or heavy, 10 μL of 5 mM stocks in DMSO, final concentration=100 μM), 1 mM tris(2-carboxyethyl)phosphine hydrochloride (TCEP; fresh 50× stock in water, final concentration=1 mM), ligand (17× stock in DMSO:t-butanol 1:4, final concentration=100 μM) and 1 mM CuSO4 (50× stock in water, final concentration=1 mM). The samples were allowed to react for 1 h at which point the samples were centrifuged (16,000×g, 5 min, 4° C.). The resulting pellets were sonicated in ice-cold methanol (500 μL) and the resuspended light- and heavy-labeled samples were then combined pairwise and centrifuged (16,000×g, 5 min, 4° C.). The pellets were solubilized in PBS containing 1.2% SDS (1 mL) with sonication and heating (5 min, 95° C.) and any insoluble material was removed by an additional centrifugation step at ambient temperature (14,000×g, 1 min).
For each sample, 100 μL of streptavidin-agarose beads slurry (Fisher) was washed in 10 mL PBS and then resuspended in 6 mL PBS (final concentration 0.2% SDS in PBS). The SDS-solubilized proteins were added to the suspension of streptavidin-agarose beads and the bead mixture was rotated for 3 h at ambient temperature. After incubation, the beads were pelleted by centrifugation (1,400×g, 3 min) and were washed (2×10 mL PBS and 2×10 mL water).
The beads were transferred to eppendorftubes with 1 mL PBS, centrifuged (1,400×g, 3 min), and resuspended in PBS containing 6 M urea (500 μL). To this was added 10 mM DTT (25 μL of a 200 mM stock in water) and the beads were incubated at 65° C. for 15 mins. 20 mM iodoacetamide (25 μL of a 400 mM stock in water) was then added and allowed to react at 37° C. for 30 mins with shaking. The bead mixture was diluted with 900 μL PBS, pelleted by centrifugation (1,400×g, 3 min), and resuspended in PBS containing 2 M urea (200 μL). To this was added 1 mM CaCl2 (2 μL of a 200 mM stock in water) and trypsin (2 μg, Promega, sequencing grade) and the digestion was allowed to proceed overnight at 37° C. with shaking. The beads were separated from the digest with Micro Bio-Spin columns (Bio-Rad) by centrifugation (1,000×g, 1 min), washed (2×1 mL PBS and 2×1 mL water) and then transferred to fresh eppendorf tubes with 1 mL water. The washed beads were washed once further in 140 μL TEV buffer (50 mM Tris, pH 8, 0.5 mM EDTA, 1 mM DTT) and then resuspended in 140 μL TEV buffer. 5 μL TEV protease (80 μM) was added and the reactions were rotated overnight at 29° C. The TEV digest was separated from the beads with Micro Bio-Spin columns by centrifugation (1,400×g, 3 min) and the beads were washed once with water (100 μL). The samples were then acidified to a final concentration of 5% (v/v) formic acid and stored at −80° C. prior to analysis.
Samples processed for multidimensional liquid chromatography tandem mass spectrometry (MudPIT) were pressure loaded onto a 250 μm (inner diameter) fused silica capillary columns packed with C18 resin (Aqua 5 μm, Phenomenex). […]

NR0B1-SNW1 interaction = target: T2, NR0B1-SNW1 interaction (Homo sapiens, UniProt P51843); experiment: In vitro binding assay: NR0B1 in H2122 lysate binding to immobilized FLAG-SNW1
T2 construct: endogenous in cells; host or cells: NR0B1: H2122 cell lysate
T2 sequence (P51843 1-470): T1 sequence (P51843 1-470)
Method: H2122 clarified cell lysate (100 μL, 1 mg ml^−1) in IP-buffer were incubated with the indicated compounds or vehicle (DMSO) for 3 hours at 4° C. with rotation. Following treatment, 3 volumes of IP-buffer was added along with immobilized FLAG-SNW1 beads (30 μL, 50:50 slurry), which was incubated for an additional hour at 4° C. Beads were washed three times with IP-buffer supplemented with 500 mM NaCl. Immunoprecipitated proteins were resolved by SDS-PAGE and analyzed by immunoblotting. NR0B1 and HA-NR0B1 levels were determined by using the NR0B1 antibody (Cell Signaling). IC50 curves were determined using Prism 6 (Graphpad) software, with maximum and minimum values set at 100% NR0B1 bound 0% NR0B1 bound respectively.
Statistical analysis was preformed using GraphPad Prism version 6 or 7 for Mac, GraphPad Software, La Jolla Calif. USA, or the R statistical programming language. Inhibition curves of the NR0B1-SNW1 interactions by NR0B1-ligand are fit as using log(inhibitor) vs % normalized remaining of NR0B1-SNW1 interaction and data points are plotted as the mean±SD (n=2-5 per group). NR0B1 half-life was calculated from a one-phase exponential decay curve plotted as mean±SD (4-10 per group). Statistical significance was defined as p<0.05 and determined by 2-tailed Student's t-test (FIG. 1I, FIG. 3B), two-way Anova with Bonferroni post-test analysis (FIG. 1J) or correlation analysis using Pearson product-moment correlation coefficient (FIG. 4B, FIG. 10G).
Next, a chemical probe targeting C274 of NR0B1 was developed. Using an in vitro binding assay (FIG. 5B), an ˜80-member library of cysteine-reactive electrophilic compounds was screened at 50 μM for blockade of interactions between endogenous NR0B1 and recombinant FLAG-SNW1 in cell lysates (FIG. 5C). Among the hits (>50% blockade) were a series of N-disubstituted chloroacetamides (CAs), including BPK-26 (FIGS. 5D, 5E), that were selected for further investigation. […] Both BPK-26 and BPK-29 inhibited the NR0B1-SNW1 interaction with IC50 values between 10-20 μM in vitro (FIG. 11C).

Compound: C=CC(=O)Nc1cc(Nc2nccc(-c3cn(C)c4ccccc34)n2)c(OC)cc1N(C)CCN(C)C [AZD9291]
changes in cysteine reactivity [1]: neither of which caused substantive changes in cysteine reactivity

engagement of C274 of NR0B1 (NR0B1): did not engage C274
inhibition of the NR0B1-SNW1 interaction (NR0B1-SNW1 interaction; tested concentration range of 1-50 μM): did not inhibit
Compound: COc1cc(CN(C(=O)CCl)c2cc(C(C)(C)C)ccc2OC)ccc1OCc1ccccc1 [BPK-27, N-(4-(benzyloxy)-3-methoxybenzyl)-N-(5-(tert-butyl)-2-methoxyphenyl)-2-chloroacetamide]
colony formation in soft agar (KEAP1-mutant NSCLC cells): much less of an effect

relative potency for inhibition of FLAG-SNW1 binding to NR0B1 (structure-activity relationship) (NR0B1-SNW1 interaction; compounds at 50 μM): only modest reductions in potency
Compound: Cc1ccccc1C(=O)N1CCCC(N(Cc2ccccc2)C(=O)CCl)CC1 (stereo not drawn) [BPK-28, N-benzyl-2-chloro-N-(1-(2-methylbenzoyl)azepan-4-yl)acetamide]

Compound: CN[C@@H]1C[C@H]2O[C@@](C)([C@@H]1OC)n1c3ccccc3c3c4c(c5c6ccccc6n2c5c31)C(=O)NC4 [staurosporine]
changes in cysteine reactivity [1]: neither of which caused substantive changes in cysteine reactivity
